Assay results from patent US8815593B2, “Induction of human embryonic stem cell derived cardiac pacemaker or chamber-type cardiomyocytes by manipulation of neuregulin signaling” (University of Washington, priority 2008, dated 2014).

B1: NRG1β ligand: NRG-1β (R&D Systems), exogenous neuregulin-1β agonist of ErbB receptors (protein)
chain: TSHLVKCAEKEKTFCVNGGECFMVKDLSNPSRYLCKCPNEFTGDRCQNYVMASFYKHLGIEFMEAEELYQK

What was measured:
Assay type in all cases: cell-based, human
hESC-CM cultures [1] = experiment: quantitative RT-PCR of cardiac subtype-specific genes; details: treated hESC-CMs vs control, normalized to GAPDH
Method: Total RNA was prepared by lysing cell preparations with the Qiagen RNEasy kit, followed by DNase treatment. After confirming the quality of the RNA using an Agilent Bioanalyzer 2100, it was reverse-transcribed into cDNA using the Superscript III first-strand cDNA synthesis kit (Invitrogen). Tables 2 and 3 list the primers used for semi-quantitative and quantitative RT-PCR reactions, respectively. All primer pairs were designed to be intron-spanning Quantitative real-time PCR reactions were performed using the SYBR green dye system and an Applied Biosystems 7900HT instrument. Cycling conditions were 10 minutes at 95° C., and 40 cycles of 30 seconds at 95° C., 30 seconds at 55° C., and 30 seconds at 72° C. mRNA levels were normalized using GAPDH as an internal control, and adult human heart cDNA was always run in parallel as a positive control.
In the preceding experiments, manipulation of NRG-1β/ErbB signaling changed the relative abundance of the two cardiac subtypes, as determined by both AP phenotyping and activation of the nodal-specific cGATA6-EGFP genetic reporter. To confirm these findings with an independent, molecular approach, quantitative RT-PCR was used to compare the expression of 18 subtype-specific genes in control, AG1478, and NRG-1β ligand-treated hESC-CM cultures (see Table 4). […] In sum, activation of NRG-1β/ErbB signaling increased the expression of genes associated with working cardiomyocytes, while its blockade with AG1478 increased the expression of genes associated with the nodal subtype.

hESC-CM cultures [2] = experiment: action potential (AP) phenotyping of hESC-CMs under current clamp after manipulation of NRG-1β/ErbB signaling
Method: At 14 days following induction with activin A, hESC-CMs were dispersed using 0.1 U/ml of dispase (Invitrogen) with 63 U/ml DNase I (Invitrogen) and replated at low density onto 0.5% gelatin-coated glass coverslips. After a few days of additional culture, the spontaneously generated action potentials (APs) of the hESC-CMs were recorded using a HEKA EPC-10 amplifier (HEKA, Lambrecht, Germany), operated in current-clamp mode. Note that the EPC-10 has a true “voltage follower” circuit, similar to a classical microelectrode amplifier (Magistretti et al., “Modalities of Distortion of Physiological Voltage Signals by Patch-Clamp Amplifiers: a Modeling Study,” Biophys J. 74(2 Pt 1):831-842 (1998) and Magistretti et al., “Action Potentials Recorded with Patch-Clamp Amplifiers: Are They Genuine?” Trends Neurosci. 19(12):530-534 (1996), which are hereby incorporated by reference in their entirety). […] Patch pipettes with a resistance of 2-4 MΩ were used; cells with a series resistance of >10 MΩ were discarded. […] Action potential parameters were analyzed by an individual blinded to culture conditions, using Patchmaster (HEKA) and Igor Pro software. […]

[3] = test system: cGATA6-EGFP-transduced hESC-CM cultures; experiment: cGATA6-EGFP reporter: fraction of EGFP+ putative nodal cells; details: cGATA6-EGFP transduced hESC-CMs, ~50% transduction efficiency; control 15%
Method: Prior to lentiviral transduction, hESC-CMs were replated onto glass coverslips as described for electrophysiological studies and allowed to recover for 4-5 days. Cells were then exposed to cGATA6-EGFP lentivirus (at 5000 LPs/cell, added to their usual RPMI-B27 medium) for 12 hours. […] Transduced cell preparations were then used in either electrophysiological or immunocytochemical studies at 3-4 days post-transduction.
Dissociated hESC-CMs were cultured on glass cover slips, fixed, and immunostained as previously described (Laflamme et al., “Cardiomyocytes Derived from Human Embryonic Stem Cells in Pro-Survival Factors Enhance Function of Infarcted Rat Hearts,” Nat. Biotechnol. 25(9):1015-1024 (2007), McDevitt et al., “Proliferation of Cardiomyocytes Derived from Human Embryonic Stem Cells is Mediated Via the IGF/PI 3-Kinase/Akt Signaling Pathway,” J Mol Cell Cardiol. 39(6):865-873 (2005), Laflamme et al., “Formation of Human Myocardium in the Rat Heart from Human Embryonic Stem Cells,” Am J. Pathol. 167(3):663-671 (2005), and Minami et al., “Extracardiac Progenitor Cells Repopulate Most Major Cell Types in the Transplanted Human Heart,” Circulation 112(19):2951-2958 (2005), which are hereby incorporated by reference in their entirety). […] Each experimental condition was assayed in triplicate, and a minimum of 500 nuclei were counted per sample. […]

[4] = test system: Akt and ERK kinases in hESC-CM cultures; experiment: Western blot analysis of Akt and Erk phosphorylation; details: hESC-CMs day 10 post-induction, 10 minutes, 10 or 100 ng/ml NRG-1β, with or without 25 μg/ml anti-NRG1β antibody
Method: For this, hESC-CMs (˜5×10^6 […] per well) were treated on day 10 post-induction with 0, 10, or 100 ng/ml NRG-1β (R&D Systems) in the presence or absence of 25 μg/ml anti-NRG1β neutralizing antibody (R&D Systems) for 10 minutes. After treatment, cells were rinsed twice with ice-cold PBS and lysed for 20 minutes on ice with 250 μl of extraction buffer (25 mM Tris-HCl (pH 7.4), 150 mM NaCl, 2 mM EDTA, 10 mM Na2SO4, and 1% Triton X-100 supplemented just prior to use with 50 mM NaF, 1 mM sodium orthovanadate, 1 mM phenylmethylsulfonyl fluoride, and a protease inhibitor cocktail (Sigma)). Lysates were collected with a cell scraper, placed in microcentrifuge tubes, vortexed for 3 minutes at 4° C., and then spun at 4° C. for 20 minutes at 12,000 g to discard cell debris. The resultant protein lysates were then denatured at 95° C. for 10 minutes and loaded (at 30 μg/lane) onto a denaturing 10% SDS/polyacrylamide gel, electrophoresed, and then transferred onto a PVDF membrane. The PVDF blot was blocked for 1 hour at room temperature in 1×TBST (150 mM NaCl, 10 mM Tris-HCl (pH 7.4), and 0.1% Tween) plus 5% nonfat milk, probed overnight with anti-phosphorylation Akt and anti-phosphorylation Erk1/2 antibodies (Cell Signaling), and then incubated with peroxidase-conjugated goat anti-mouse IgG antibody (Sigma). […]

Row | Molecule | expression of HCN4 relative to control cells (hESC-CM cultures [1]) [fold] | expression of Tbx-3 (TBX3) relative to control cells (hESC-CM cultures [1]) [fold] | proportion of cells exhibiting a nodal-like AP phenotype (hESC-CM cultures [2]; differentiating hESC-CM cultures, control 21%) [%] | percentage of EGFP+ putative nodal cells [3] [%] | expression of NPPA (atrial natriuretic factor, ANF) relative to controls (hESC-CM cultures [1]) [fold] | effect on fraction of nodal cells (AP phenotyping) (hESC-CM cultures [2]; exogenous NRG-1β 100 ng/ml, day 5 to 12 or continuously after day 5, versus control) | phosphorylation (activation) of Akt and ERK kinases [4] | phosphorylation (activation) of Akt and ERK kinases ([4]; listed as NRG-1β agonist)
1 | COc1cc2ncnc(Nc3cccc(Cl)c3)c2cc1OC [AG1478] | 2.0 | 2.6 | 52 | 25 | – | – | – | –
2 | B1 | – | – | – | – | 2.6 | a trend toward the opposite effect (i.e., a reduction in the fraction of nodal cells) | phosphorylated | activation of both kinases
